Test results published in patent US20230270713A1, “Administration of Resiniferatoxin For Treatment of Bladder Pain or Bladder Cancer” (Sorrento Therapeutics, Inc., priority 2020, published 2023).
Entries after “also recorded” stand apart in the source; their conditions may differ.

Key:
[1] = system: S1 and S2 DRG neurons expressing CGRP and SP; test: CGRP and SP positive neurons in S1 and S2 dorsal root ganglia of cats (IHC); format: in vivo, cat
Method: At day 14 the cats were anesthetized and perfused with saline followed by 10% formalin. After confirmation of successful euthanasia, lumbar and sacral segments of the spinal cord with corresponding dorsal spinal ganglia, the urinary bladder and urethra were harvested and tissues were prepared for immunohistochemistry.
Previous studies have shown that TRPV1-immunoreactive axons co-express Calcitonin gene-related peptide (CGRP) and substance P (SP) (See, e.g., Sharrad et al. (2015) Neurosci. Lett., 599: 164-171; Bae et al. (2004) J. Comp. Neurol. 478: 62-71). Since feline bladder connective tissue, smooth muscle, and cell bodies of S2 DRG express CGRP+ and SP+ axons, expression of CGRP and SP were used in these studies to identify the majority of TRPV1 axons innervating the cat bladder and TRPV1+ cell bodies in cat S2 dorsal root ganglia (DRG).
The percent of cell bodies from S1 and S2 DRG expressing SP and CGRP from feline bladders after intravesical application of either control (saline) or RTX (5, 25 or 50 mcg) was also examined using immunohistochemistry and confocal laser microscopy as described above. […] CGRP positive cell bodies were small to medium-size.

[2] = system: bladder cancer (TCC); test: Preliminary anti-cancer effect by bladder ultrasound in dogs with bladder cancer (Example D); format: in vivo, dog
Method: (§1) Dogs with bladder cancer were treated with RTX as follows. Under general anesthesia, RTX was infused directly into the bladder using a foley catheter. RTX remained in the bladder for 30 minutes before removal.
(§2) The primary endpoint was assessment of improvement of lower urinary tract signs with a 4-point lower urinary tract symptom scale (character of urination/degree of straining; frequency of urination (daytime); frequency of urination (nighttime); and blood in urine). The secondary endpoints were anti-cancer effect, as measured by bladder ultrasound, and quality of life.

[3] = Adverse events in dogs with bladder cancer (Example D); format: in vivo, dog
Method: as §1

[4] = Local tolerance and clinical observations after intravesical RTX in dogs; format: in vivo, dog; conditions: single 25 or 250 mcg intravesical
Method: Local tolerance and the pharmacokinetic (PK), and toxicokinetic (TK) profile of RTX in dogs was determined after a single instillation of RTX into the bladder of dogs (n=6). The RTX formulations were prepared using aseptic techniques in a biological safety cabinet (BSC) by mixing the appropriate amount of diluent with the appropriate amount of RTX. Dosing formulation concentrations used were 1 and 10 mcg/mL.
RTX was administered via intravesical instillation into the urinary bladder. The animals were given a single dose of 25 or 250 mcg/dose in a total volume of 25 mL on Day 1 over a period of 1 hour (±5 minutes). RTX and diluent were administered to the dogs under general anesthesia via a Foley catheter placed into the bladder for 1 hour (±5 minutes).
Observations for morbidity, mortality, injury, and the availability of food and water were conducted twice daily for all animals. Observations for clinical signs for all animals were conducted on Day 2. The observations included evaluation of the skin, fur, eyes, ears, nose, oral cavity, thorax, abdomen, external genitalia, limbs and feet, respiratory and circulatory effects, autonomic effects such as salivation, and nervous system effects including tremors, convulsions, reactivity to handling, and unusual behavior.

[5] = Adverse effects in dogs with bladder TCC (Example F); format: in vivo, dog; conditions: 16 dogs with bladder TCC
Method: RTX was administered as a one-time treatment into the bladder on Day 0 with the option of repeating RTX at a future study day. A Foley urinary catheter was placed using a sterile standard technique. An abdominal ultrasound was concurrently performed to ensure that the tip of the catheter was in the bladder lumen. Urine was removed using a catheter tipped syringe.
RTX was diluted in 0.9% NaCl and then infused into the bladder. The catheter was then flushed with 5-6 mL of 0.9% NaCl to ensure the entire IVP volume was administered. The Foley catheter was capped and remained in place for a period of 30 minutes post-infusion. The bladder was then emptied prior to removal of the Foley catheter. The timing of recovery was managed on an individual basis, but it was recommended to initiate recovery approximately 10 minutes after RTX infusion.

[6] = system: dogs with bladder cancer; test: Lower urinary tract symptom scale in dogs with bladder cancer (Example D); format: in vivo, dog; conditions: 1.0 or 2.0 ug/ml intravesical
Method: as §1
6 dogs were enrolled and treated at the following doses: • <10 kg: RTX 25 ug diluted in 24 ml NaCl (1.0 ug/ml solution) • >10 kg: RTX 50 ug diluted in 48 ml NaCl (1.0 ug/ml solution)
7 dogs were then enrolled and treated at the following doses: • <10 kg: RTX 25 ug diluted in 11.5 ml NaCl (2.0 ug/ml solution) • 10-25 kg: RTX 50 ug diluted in 23 ml NaCl (2.0 ug/ml solution) • >25 kg: RTX 100 ug diluted in 46 ml NaCl (2.0 ug/ml solution)
Three dogs were treated twice with at least 28 days between treatments. Two dogs were lost to follow-up after day 0.
as §2

## C=C(C)[C@]12C[C@@H](C)[C@@]34O[C@](Cc5ccccc5)(O[C@@H]1[C@@H]3C=C(COC(=O)Cc1ccc(O)c(OC)c1)C[C@]1(O)C(=O)C(C)=C[C@@H]41)O2 [RTX, resiniferatoxin]
[1]; cat, single 25 mcg intravesical, vs saline control
  number of neurons (cell bodies) expressing CGRP and SP in S2 DRG: does not decrease; also recorded: did not modify
[1]; cats, 5, 25 and 50 mcg, 14 days post treatment, vs control
  percentage of CGRP+ neurons in S1 DRG and S2 DRG: did not affect
[1]; cats, 5, 25 or 50 mcg intravesical, vs control
  percentage of cell bodies expressing CGRP and SP in S1 and S2 DRG: did not affect
[1]; cats, 14 days post-treatment
  percentage of SP+ neurons in S1 DRG and S2 DRG: comparable to the control
[2]; Case 03-01, 9.0 kg dog, 25 ug (2.8 ug/kg), Day 84
  Best overall tumor response: change in largest tumor diameter: −30%
[2]; Case 41-02, 38.8 kg dog, 50 ug (1.3 ug/kg) dosed twice 28 days apart, Day 28
  Best Overall Response: tumor volume: −24%
[3]; Case 03-01, 25 ug (2.8 ug/kg), Day 0
  Adverse events considered possibly attributable to RTX: Bladder spasm, urinating around catheter (Grade 1)
[3]; Case 03-02, 50 ug (2.6 ug/kg)
  Adverse events considered possibly attributable to RTX: none
[3]; Case 41-02, 50 ug (1.3 ug/kg) dosed twice, Day 1
  Adverse events considered possibly attributable to RTX: crying out after urination (Grade 1)
[3]; Case 47-02, 50 ug (2.0 ug/kg), Day 0
  Adverse events considered possibly attributable to RTX: diarrhea, vomiting, hyperoxia (Grade 1)
[3]; dogs with bladder cancer
  dose-limiting toxicity: No dose-limiting toxicity was observed
[3]; dogs with bladder cancer, 25-100 ug intravesical
  adverse events: minimal, mild, and transient
[3]; dogs with bladder cancer, all adverse events
  grade of adverse events: grade 1
[3]; dogs with bladder cancer, all tested doses incl. maximum 50 ug or 2.8 ug/kg dosed twice 28 days apart
  Tolerability: tolerated at all tested doses
[4]
  Tolerability, detailed clinical observations, body weight: well tolerated and did not result in any detailed clinical observations or changes in body weight
[5]
  Tolerability: very well tolerated
  dose dependence of the most commonly reported AE (emesis, diarrhea, anorexia): did not appear to be dose dependent
[5]; RTX 25-100 μg intravesical
  AE anorexia, number of dogs: 4 dogs
  AE anorexia, percent of dogs: 25.0%
  AE diarrhea, number of dogs: 5 dogs
  AE diarrhea, percent of dogs: 31.3%
  AE emesis, number of dogs: 6 dogs
  AE emesis, percent of dogs: 37.5%
  AE lethargy, number of dogs: 4 dogs
  AE lethargy, percent of dogs: 25.0%
[5]; SAE considered most likely related to tumor progression
  dogs with an SAE: 1 dog
[5]; except one anorexia event considered severe
  severity of the most common AEs: mild to moderate (Grade 1 or 2)
[6]; Day 7, n = 11
  Improvement of at Least 1 Score, percent of dogs: 54.5%
  Improvement of at Least 2 Scores, percent of dogs: 36.4%
  Improvement of at least 1 score (lower urinary tract symptom scale), number of dogs: 6
  Improvement of at least 2 scores (lower urinary tract symptom scale), number of dogs: 4
[6]; Day 14, n = 11
  Improvement of at Least 1 Score, percent of dogs: 72.7%
  Improvement of at Least 2 Scores, percent of dogs: 45.5%
  Improvement of at least 1 score (lower urinary tract symptom scale), number of dogs: 8
  Improvement of at least 2 scores (lower urinary tract symptom scale), number of dogs: 5
[6]; Day 28, n = 8
  Improvement of at Least 1 Score, percent of dogs: 75.0%
  Improvement of at Least 2 Scores, percent of dogs: 50.0%
  Improvement of at least 1 score (lower urinary tract symptom scale), number of dogs: 6
  Improvement of at least 2 scores (lower urinary tract symptom scale), number of dogs: 4
[6]; Day 56, n = 5
  Improvement of at Least 1 Score, percent of dogs: 100%
  Improvement of at Least 2 Scores, percent of dogs: 60.0%
  Improvement of at least 1 score (lower urinary tract symptom scale), number of dogs: 5
  Improvement of at least 2 scores (lower urinary tract symptom scale), number of dogs: 3
[6]; Day 84, n = 3
  Improvement of at Least 1 Score, percent of dogs: 100%
  Improvement of at Least 2 Scores, percent of dogs: 66.7%
  Improvement of at least 1 score (lower urinary tract symptom scale), number of dogs: 3
  Improvement of at least 2 scores (lower urinary tract symptom scale), number of dogs: 2
